Where two headings read alike, the source gives them in different places.
Assays:
AdipoR1 = molecular target: T1, AdipoR1 (Homo sapiens, UniProt Q96A54); assay: Competitive FP assay, displacement of probe 1 from AdipoR1; assay type: binding; details: 2 µM receptor, 100 nM probe 1, 30 min, 25°C
T1 construct: The cDNAs encoding full-length of AdipoR1 or AdipoR2 were then sub-cloned into the mammalian expression vector pBEX and pcDNA3.1–Myc-His(+); His (C); Myc (C); made in house; host or cells: CHO cells
T1 sequence (Q96A54 1-375): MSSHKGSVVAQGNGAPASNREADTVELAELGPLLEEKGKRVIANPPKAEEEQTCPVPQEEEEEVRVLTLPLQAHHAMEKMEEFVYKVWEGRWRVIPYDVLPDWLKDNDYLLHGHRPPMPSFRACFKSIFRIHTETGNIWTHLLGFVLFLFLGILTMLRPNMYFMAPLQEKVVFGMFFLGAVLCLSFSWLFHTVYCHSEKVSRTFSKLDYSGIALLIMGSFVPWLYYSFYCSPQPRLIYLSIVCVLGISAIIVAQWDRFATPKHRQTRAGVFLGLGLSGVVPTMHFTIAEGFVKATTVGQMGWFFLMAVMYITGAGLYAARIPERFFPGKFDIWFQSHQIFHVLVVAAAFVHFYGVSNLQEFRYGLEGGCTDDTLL
Protocol: Unlabeled short peptide 3 was titrated against the FITC-labeled peptide and adiponectin receptor mixture. Plates were incubated at room temperature for up to 3 hours or 30 min at different temperatures. FP values were taken and IC50 values were calculated.
Master mixtures containing fluorescein-labeled probe 1 and adiponectin receptor (AdipoR1 or AdiopR2, 2 µM and probe 1 at 100 nM) in a reaction volume of 19 µl were prepared and loaded to plates. The library compounds (10 µM –0.078 µM, half dilutions) were prepared separately and transferred into the assay plates. The first and last columns of each plate were used as positive and negative control wells. Wells containing the drug only were used as controls to detect auto-fluorescence of the compounds in the total fluorescence assay. After subtraction of the background signal, data was processed and the IC50 values were determined by non-linear least square fitting using SigmaPlot 11.0.
Given that the present study is a screening study, peptide 3 was chosen as the positive control for cost-efficiency purposes.
To optimize the FP assay properly, it was necessary to assess the stability of the FP assay. The conditions for the FP assay were established by testing various parameters including incubation temperature, time, TF values, ΔmP values, and DMSO tolerance. […] In summary, the competitive FP binding assay conditions ideal for identifying adiponectin receptor agonists are: i) 2 µM adiponectin receptor, ii) 100 nM probe 1, iii) 5% final DMSO concentration (v/v), and iv) incubation for 30 min at 25°C before reading the plate.
A pilot screen against the natural product library of 10,000 compounds described above was performed at screening concentrations of 10 µM to 0.078 µM (half serial dilutions) in 5% DMSO (v/v). Controls present in each assay plate consisted of 5% DMSO (negative control) or peptide 3 (positive control).
We screened a library of 10,000 natural compounds for adiponectin agonists. […] 46 compounds that could generate IC50 curves were identified as initial hits.

[1] = test system: PPARα phosphorylation (AdipoR2 signaling) in MCF-7 cells; assay: Western blot of PPARα phosphorylation in MCF-7 cells; assay type: cell-based, human; details: MCF-7 cells treated at IC50 concentration for 6 h
Protocol: Cells were grown to 80% confluence, harvested and aliquoted into 100 mm dishes in serum free media. Cells were allowed to attach overnight and then the serum free media was removed and then cells were washed in PBS twice. Different doses of compounds were prepared in the normal media and added to different dishes for an additional 6 h. Cells were washed 3 times with ice-cold PBS and cell lysates were prepared by scraping cells into lysis buffer A (RIPA buffer, 2 mM dithiothreitol […], 1×Halt protease inhibitor cocktail (Thermo scientific), and 1×Halt phosphatase inhibitor cocktail (Thermo scientific)). The cells were allowed to swell on ice (5 min), after which the homogenate was centrifuged. The supernatants were transferred to fresh tubes and protein concentrations were determined using the Bio-Rad protein assay (Bio-Rad Laboratories, Inc.) per manufacturer’s instructions. Aliquots of the cell lysates were stored at −80°C.
Equal amounts of total protein (50 µg) were subjected to electrophoresis (10% tris-HCl, 1.0 mm gels) and transferred to nitrocellulose membranes. Membranes were blocked in TBS containing 0.05% Tween 20 (TBST) and 5% nonfat milk or 5% BSA for 1 hour at room temperature. Appropriately diluted primary antibodies were incubated in TBST/5% nonfat milk or TBST/5% BSA for 2 h at room temperature or overnight at 4 °C. Membranes were washed in TBST three times for 15 min each. Appropriately diluted secondary antibodies were incubated in superblock blocking buffers (Thermo Scientific) for 1 h at room temperature. Membranes were washed in TBST three times for 15 min. Proteins were detected by Amersham™ ECL plus western blotting detection system (GE healthcare). The following antibodies were used: anti-AdipoR1 M18, anti-AdipoR2 C12 (Santa Cruz Biotechnology, Santa Cruz, CA), anti-p-AMPKα(T172), anti-AMPKα, and anti-β-actin (Cell Signaling, Danvers, MA).
It is well established that adiponectin activates AMPK and p38 MAPK through AdipoR1 or PPARα through AdipoR2 to mediate its downstream signaling cascades, [9], [12], [14]. […] The levels of phosphorylation of AMPK and phosphorylation of PPARα were examined and the relative expression levels of the phospho-protein to the total expression of protein levels were quantified using ImageJ software (NIH) ( Fig. 3 ).
Figure 3 Effects of hit compounds on adiponectin receptor signaling pathways. […] A total 50 µg of cell lysate was loaded to each lane. Western blot was performed follow the protocol in materials and methods section.

MDA-MB-231 cells = assay: Cell viability assay (CellTiter-Blue) in MDA-MB-231 cells; assay type: cell-based; details: Homo sapiens, MDA-MB-231; 72 h, 20 µM to 1.2 nM; read-out: IC50 (µM) MDA-MB-231 cells, cell viability
Protocol: All cell lines were obtained from the American Type Culture Collection (ATCC). MCF-7 and MDA-MB-231 cells were maintained in DMEM containing 10% fetal bovine serum and supplied with 1% penicillin/streptomycin. All cells were maintained in a 5% CO2 atmosphere at 37°C.
The effects of the lead compounds on cell proliferation were tested in MCF-7 and MDA-MB-231 cells. Cells were grown to 80% confluence, harvested and aliquoted into 384-well plates in a total volume of 45 µl per well. The outer wells were inoculated with sterile water to minimize evaporation from the sample wells. Cells were allowed to attach overnight and 5 µl culture media containing either vehicles or drug were added. Cell proliferation was evaluated using CellTilter-Blue reagent (Promega, China) according to manufacturer’s instructions after 72-h incubation. Fluorescence was measured with an excitation at 530 nm and emission at 590 nm. After background subtraction, cell viability values were normalized to vehicle controls and expressed as percentage of the mean of the relative vehicle controls.
To further confirm the agonistic activity of hit compounds, MDA-MB-231 and MCF-7 cells were treated with different concentrations of g-Ad or drug (20 µM to 1.2 nM) for 72 hours and cell viability was measured. Thus, four compounds (arctiin, (-)-arctigenin, matairesinol and gramine) that show agonistic activity against adiponectin receptor 1 and four compounds (deoxyschizandrin, taxifoliol, syringing and parthenolide) that show agonistic activity against adiponectin receptor 2 were identified.

[2] = primary screen, read-out: IC50 vs AdipoR1 (µM) Primary screen
[3] = validation, read-out: IC50 vs AdipoR1 (µM) Validated

SMILES	IC50 (AdipoR1; [2]) [µM]	IC50 (AdipoR1; [3]) [µM]	IC50 (MDA-MB-231 cells) [µM]	Effect on PPARα phosphorylation level [1]	Effect on PPARα phosphorylation level ([1]; listed as gramine)
CN(C)Cc1c[nH]c2ccccc12 [Compound 9, Gramine]	4.5	4.2 ± 0.5	9.6 ± 0.9	inhibited	decreased
COc1cc2c(c(OC)c1OC)-c1c(cc(OC)c(OC)c1OC)C[C@H](C)[C@H](C)C2 [Compound 4, Deoxyschizandrin]	> 5	> 5	> 10	increased	–
C=C1C(=O)O[C@H]2[C@H]1CC/C(C)=C/CC[C@@]1(C)O[C@@H]21 [Compound 7, Parthenolide]	> 5	> 5	> 10	increased	–

Stronger by IC50 (AdipoR1; [2]), values ahead:

IC50 (AdipoR1; [2]) [µM]	IC50 (AdipoR1; [3]) [µM]	IC50 (MDA-MB-231 cells) [µM]	SMILES	Effect on PPARα phosphorylation level [1]	Effect on PPARα phosphorylation level ([1]; listed as gramine)
1.2	1.3 ± 0.2	3.2 ± 0.3	COc1ccc(C[C@H]2COC(=O)[C@@H]2Cc2ccc(O[C@@H]3O[C@H](CO)[C@@H](O)[C@H](O)[C@H]3O)c(OC)c2)cc1OC [Compound 1, Arctiin]	inhibited	–
0.9	0.8 ± 0.2	1.8 ± 0.6	COc1cc(C[C@H]2COC(=O)[C@@H]2Cc2ccc(O)c(OC)c2)ccc1O [Compound 3, Matairesinol]	inhibited	–

Source: article PMC3653934, “Identification of Adiponectin Receptor Agonist Utilizing a Fluorescence Polarization Based High Throughput Assay” (PLoS ONE, 2013)
